Test results: patent publication US10494378B2, “Fused ring pyrimidine compound, intermediate, and preparation method, composition and use thereof” (GUANGZHOU MAXINOVEL PHARMACEUTICALS CO., LTD., priority 2015, dated 2019)

Legend:
Assay type in all cases: biochemical
FGFR 3 = target: T1, FGFR 3 (Homo sapiens, UniProt P22607); test: IC50 evaluation assay of FGFR3 kinase inhibition (Caliper); conditions: 28° C.; average of two tests; read-out: IC50 (nM) inhibiting FGFR 3 kinase
T1 construct: purchased Carna 08-135
T1 sequence (P22607 23-806): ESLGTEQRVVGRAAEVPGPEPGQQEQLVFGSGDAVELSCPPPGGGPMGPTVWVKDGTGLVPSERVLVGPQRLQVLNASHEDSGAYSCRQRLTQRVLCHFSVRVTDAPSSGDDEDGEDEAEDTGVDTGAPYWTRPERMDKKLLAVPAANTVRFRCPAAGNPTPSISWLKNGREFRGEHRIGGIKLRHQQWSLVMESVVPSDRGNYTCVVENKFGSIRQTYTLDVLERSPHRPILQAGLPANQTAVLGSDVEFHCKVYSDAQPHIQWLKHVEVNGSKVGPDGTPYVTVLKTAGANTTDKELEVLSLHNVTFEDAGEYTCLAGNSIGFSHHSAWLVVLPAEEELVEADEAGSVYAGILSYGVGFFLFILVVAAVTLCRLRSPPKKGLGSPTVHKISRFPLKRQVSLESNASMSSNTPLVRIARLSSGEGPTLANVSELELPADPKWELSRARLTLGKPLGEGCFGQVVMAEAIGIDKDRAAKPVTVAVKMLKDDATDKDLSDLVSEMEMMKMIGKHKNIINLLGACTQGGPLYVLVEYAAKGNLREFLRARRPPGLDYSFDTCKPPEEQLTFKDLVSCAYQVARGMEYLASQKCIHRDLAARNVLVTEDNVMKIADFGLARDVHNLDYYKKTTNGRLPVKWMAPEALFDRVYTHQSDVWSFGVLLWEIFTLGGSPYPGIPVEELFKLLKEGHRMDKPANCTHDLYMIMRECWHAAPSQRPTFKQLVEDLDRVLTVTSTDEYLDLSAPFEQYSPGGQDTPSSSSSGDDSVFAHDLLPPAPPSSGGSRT

FLT3-ITD kinase = target: T2, FLT3-ITD kinase (Homo sapiens, UniProt P36888); test: IC50 evaluation assay of FLT3-ITD kinase inhibition (Caliper); conditions: 28° C.; average of two tests; read-out: IC50 (nM) inhibiting FLT3-ITD kinase
T2 sequence (P36888 1-993): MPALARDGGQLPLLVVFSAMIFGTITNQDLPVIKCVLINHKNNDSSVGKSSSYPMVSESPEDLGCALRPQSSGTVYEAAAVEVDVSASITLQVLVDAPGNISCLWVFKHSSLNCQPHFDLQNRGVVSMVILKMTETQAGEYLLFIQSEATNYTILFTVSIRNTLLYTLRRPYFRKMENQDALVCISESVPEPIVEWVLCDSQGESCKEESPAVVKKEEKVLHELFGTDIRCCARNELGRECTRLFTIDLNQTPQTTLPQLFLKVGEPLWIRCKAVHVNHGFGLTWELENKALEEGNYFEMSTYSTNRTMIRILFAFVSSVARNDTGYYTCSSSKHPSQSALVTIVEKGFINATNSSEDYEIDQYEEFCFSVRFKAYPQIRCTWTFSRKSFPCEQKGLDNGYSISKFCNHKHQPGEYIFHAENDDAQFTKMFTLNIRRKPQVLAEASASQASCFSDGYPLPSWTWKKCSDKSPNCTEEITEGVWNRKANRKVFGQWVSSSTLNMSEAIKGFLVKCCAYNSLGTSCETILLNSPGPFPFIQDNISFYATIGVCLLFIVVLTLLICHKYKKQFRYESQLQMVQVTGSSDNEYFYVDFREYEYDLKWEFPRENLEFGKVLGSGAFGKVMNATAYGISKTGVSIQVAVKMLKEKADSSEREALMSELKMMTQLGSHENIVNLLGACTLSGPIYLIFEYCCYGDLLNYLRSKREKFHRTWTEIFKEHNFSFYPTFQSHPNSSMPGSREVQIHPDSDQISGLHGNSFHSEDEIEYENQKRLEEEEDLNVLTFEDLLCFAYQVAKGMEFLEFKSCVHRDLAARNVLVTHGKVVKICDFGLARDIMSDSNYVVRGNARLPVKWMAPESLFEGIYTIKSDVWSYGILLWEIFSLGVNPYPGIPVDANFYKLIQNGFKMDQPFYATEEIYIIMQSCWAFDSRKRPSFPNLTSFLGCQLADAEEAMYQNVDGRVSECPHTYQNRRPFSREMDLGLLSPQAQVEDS
Method: (§1) 1. The compound was dissolved in 100% DMSO, diluted into solutions with appropriate concentration gradients with water according to experimental requirement, and added to a 96-well plate.
2. FLT3 kinase (Carna, Cat. No. 08-154, Lot. No. 07CBS-2350), FLT3-ITD kinase (Invitrogen, Cat. No. PV6191, Lot. No. 1753453) and FLT3-D835Y kinase (Invitrogen, Cat. No. PR7450A, Lot. No. 1629729C) were diluted to the optimum concentration with the following buffer solution: 50 mM HEPES, pH 7.5, 0.0015% Brij-35, 10 mM MgCl2, 2 mM DTT. Transfer to the 96-well plate and incubate with the compound at 28° C. for a period of time.
(§2) 3. The buffer solution (100 mM HEPES, pH 7.5, 0.0015% Brij-35, 0.2% Coating Reagent and […]) was added to terminate the reaction.
(§3) 4. The conversion rate was read with Caliper Reader. The inhibition rate was calculated as the average of two tests.

c-Src kinase = target: T3, c-Src kinase (Homo sapiens, UniProt P12931); test: IC50 evaluation assay of Src family kinase inhibition: c-Src; conditions: 28° C.; average of two tests; read-out: IC50 (nM) inhibiting Src family kinase c-Src
T3 construct: purchased Carna 08-173
T3 sequence (P12931 whole entry): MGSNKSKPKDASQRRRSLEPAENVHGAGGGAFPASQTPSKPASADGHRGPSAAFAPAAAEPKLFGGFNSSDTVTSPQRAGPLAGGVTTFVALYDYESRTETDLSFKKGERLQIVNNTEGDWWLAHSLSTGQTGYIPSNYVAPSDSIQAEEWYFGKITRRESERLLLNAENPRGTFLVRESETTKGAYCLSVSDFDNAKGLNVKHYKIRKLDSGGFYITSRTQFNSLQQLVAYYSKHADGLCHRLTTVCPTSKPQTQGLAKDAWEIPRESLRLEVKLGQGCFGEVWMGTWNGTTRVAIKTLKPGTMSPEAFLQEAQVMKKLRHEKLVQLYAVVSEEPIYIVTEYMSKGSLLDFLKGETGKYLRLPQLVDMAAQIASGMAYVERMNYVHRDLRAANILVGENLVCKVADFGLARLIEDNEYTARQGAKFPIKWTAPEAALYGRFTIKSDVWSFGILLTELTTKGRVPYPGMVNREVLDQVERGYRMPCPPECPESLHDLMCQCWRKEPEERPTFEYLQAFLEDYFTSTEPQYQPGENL
Method: as §1
(§4) 2. c-Src kinase (Carna, Cat. No. 08-173, Lot. No. 05CBS-1367), LYNαkinase (Carna, Cat. No. 08-171, Lot. No. 06CBS-3296D), FYN kinase (Carna, Cat. No. 08-068, Lot. No. 05CBS-1032), LCK kinase (Carna, Cat. No. 08-170, Lot. No. 07CBS-2482), HCK kinase (BPS, Cat. No. 40440, Lot. No. 1001), FGR kinase (Carna, Cat. No. 08-166, Lot. No. 05CBS-2781), YES kinase (Carna, Cat. No. 08-175, Lot. No. 06CBS-3247) were diluted to the optimum concentration with the following buffer solution: 50 mM HEPES, pH 7.5, 0.0015% Brij-35, 10 mM MgCl2, 2 mM DTT. Transfer to the 96-well plate and incubate with the compound at 28° C. for a period of time.
as §2, §3

FYN kinase = target: T4, FYN kinase (Homo sapiens, UniProt P06241); test: IC50 evaluation assay of Src family kinase inhibition: FYN; conditions: 28° C.; average of two tests; read-out: IC50 (nM) inhibiting Src family kinase FYN
T4 construct: purchased Carna 08-068
T4 sequence (P06241 whole entry): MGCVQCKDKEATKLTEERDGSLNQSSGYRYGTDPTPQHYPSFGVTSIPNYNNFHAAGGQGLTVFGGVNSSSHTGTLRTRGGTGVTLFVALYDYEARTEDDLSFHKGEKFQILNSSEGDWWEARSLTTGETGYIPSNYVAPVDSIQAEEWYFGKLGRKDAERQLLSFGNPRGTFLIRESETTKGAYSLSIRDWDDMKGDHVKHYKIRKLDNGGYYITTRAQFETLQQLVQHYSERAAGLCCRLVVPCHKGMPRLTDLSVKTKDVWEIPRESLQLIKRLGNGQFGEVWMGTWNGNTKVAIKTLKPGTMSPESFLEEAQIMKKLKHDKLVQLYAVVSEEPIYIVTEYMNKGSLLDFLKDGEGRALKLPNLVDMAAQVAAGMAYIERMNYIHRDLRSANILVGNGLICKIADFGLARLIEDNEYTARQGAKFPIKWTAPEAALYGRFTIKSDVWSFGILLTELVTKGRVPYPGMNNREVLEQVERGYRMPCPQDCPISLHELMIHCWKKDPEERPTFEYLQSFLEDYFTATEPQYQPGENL
Method: as §1, §4, §2, §3

HCK kinase = target: T5, HCK kinase (Homo sapiens, UniProt P08631); test: IC50 evaluation assay of Src family kinase inhibition: HCK; conditions: 28° C.; average of two tests; read-out: IC50 (nM) inhibiting Src family kinase HCK
T5 construct: purchased BPS 40440
T5 sequence (P08631 whole entry): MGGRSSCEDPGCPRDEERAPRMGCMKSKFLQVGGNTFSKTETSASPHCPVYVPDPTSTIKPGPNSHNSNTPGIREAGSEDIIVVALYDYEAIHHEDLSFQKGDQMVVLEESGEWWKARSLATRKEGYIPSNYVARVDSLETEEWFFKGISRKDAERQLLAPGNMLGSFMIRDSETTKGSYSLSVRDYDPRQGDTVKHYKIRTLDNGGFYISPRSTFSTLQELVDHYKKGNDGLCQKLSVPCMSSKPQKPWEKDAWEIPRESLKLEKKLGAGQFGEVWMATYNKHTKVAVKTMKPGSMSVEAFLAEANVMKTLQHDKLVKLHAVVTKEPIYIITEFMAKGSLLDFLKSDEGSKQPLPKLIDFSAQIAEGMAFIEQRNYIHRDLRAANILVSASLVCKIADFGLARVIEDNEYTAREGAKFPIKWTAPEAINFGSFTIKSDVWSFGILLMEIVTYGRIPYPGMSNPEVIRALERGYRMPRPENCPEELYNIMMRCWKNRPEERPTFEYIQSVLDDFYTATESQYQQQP
Method: as §1, §4, §2, §3

YES kinase = target: T6, YES kinase (Homo sapiens, UniProt P07947); test: IC50 evaluation assay of Src family kinase inhibition: YES; conditions: 28° C.; average of two tests; read-out: IC50 (nM) inhibiting Src family kinase YES
T6 construct: purchased Carna 08-175
T6 sequence (P07947 whole entry): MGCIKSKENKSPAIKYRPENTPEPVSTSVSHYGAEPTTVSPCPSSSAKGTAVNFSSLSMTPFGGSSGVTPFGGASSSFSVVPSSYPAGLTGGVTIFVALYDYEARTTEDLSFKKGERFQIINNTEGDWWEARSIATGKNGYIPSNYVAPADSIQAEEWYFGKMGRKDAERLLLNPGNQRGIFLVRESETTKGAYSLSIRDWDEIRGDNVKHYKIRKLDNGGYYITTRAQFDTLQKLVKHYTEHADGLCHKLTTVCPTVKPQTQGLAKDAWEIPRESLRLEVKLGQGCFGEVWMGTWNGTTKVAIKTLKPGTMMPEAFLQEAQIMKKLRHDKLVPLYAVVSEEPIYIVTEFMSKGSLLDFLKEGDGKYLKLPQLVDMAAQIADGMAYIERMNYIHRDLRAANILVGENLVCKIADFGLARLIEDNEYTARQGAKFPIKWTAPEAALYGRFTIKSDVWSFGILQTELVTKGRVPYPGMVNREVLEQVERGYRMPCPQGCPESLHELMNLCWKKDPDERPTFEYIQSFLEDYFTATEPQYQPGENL
Method: as §1, §4, §2, §3

| Structure (SMILES) | IC50 (FGFR 3) [nM] | IC50 (FLT3-ITD kinase) [nM] | IC50 (c-Src kinase) [nM] | IC50 (FYN kinase) [nM] | IC50 (HCK kinase) [nM] | IC50 (YES kinase) [nM] |
| --- | --- | --- | --- | --- | --- | --- |
| COc1cc(F)ccc1-c1c(C)sc2cnc(Nc3cnn(C4CCNCC4)c3)nc12 [Compound 31, N-[7-(4-fluoro-2-methoxyphenyl)-6-methylthieno[3,2-d]pyrimidinyl-2-yl]-1-(piperidinyl-4-yl)-1H-pyrazol-4-amine] | 16 | 0.34 | 6 | 3.7 | 30 | 5.8 |
| COc1cc(F)ccc1-c1c(C)sc2cnc(Nc3cnn(C4CCN(CCO)CC4)c3)nc12 [Compound 34, 2-[4-(4-{[7-(4-fluoro-2-methoxyphenyl)-6-methylthieno[3,2-d]pyrimidinyl-2-yl]amino}-1H-pyrazol-1-yl)-piperidinyl-1-yl]-1-ethanol] | 15 | 0.33 | 6.3 | < 5 | 27 | 6.8 |
